According to US6927229B2 (dated 2005):

Row | SMILES | melting point
1 | O=C1O[C@@H](CNC(=S)C(F)F)CN1c1ccc(N2CC[S+]([O-])CC2)cc1 | 155 to 156 °C
2 | O=C1O[C@@H](CNC(=S)C(F)F)CN1c1ccc(N2CCS(=O)(=O)CC2)c(F)c1 | 146 to 147 °C
3 | O=C1O[C@@H](CNC(=S)C(F)F)CN1c1ccc(N2CCCS(=O)(=O)CC2)c(F)c1 | 128 to 130 °C
4 | O=C1O[C@@H](CNC(=S)C(F)F)CN1c1ccc(N2CCS(=O)(=O)CC2)cc1 | 126 to 127 °C
5 | O=C1O[C@@H](CNC(=S)C(F)F)CN1c1cc(F)c(N2CCS(=O)(=O)CC2)c(F)c1 | 88 to 90 °C

Second part, the compound after the results:

Row | melting point | SMILES
6 | 168 to 169 °C | O=C1O[C@@H](CNC(=S)C(F)F)CN1c1ccc(C2CCS(=O)(=O)CC2)c(F)c1
7 | 174 to 176 °C | O=C1O[C@@H](CNC(=S)C(F)F)CN1c1ccc(C2CCS(=O)(=O)CC2)cc1
8 | 126 to 128 °C | O=C1O[C@@H](CNC(=S)C(F)F)CN1c1cc(F)c(C2CCS(=O)(=O)CC2)c(F)c1
